Assays:
BDNF protein expression = assay: BDNF immunohistochemistry of brain sections of PTZ-kindled mice (ImageJ densitometry); assay type: in vivo; details: cortical region, kindled animals; normal control 29.53±3.9, PTZ control 57.6±13.6
Description: (§1) Animals were sacrificed 24 hrs after establishment of complete kindling. Cardiac perfusion with chilled PBS buffer (NaCl—8 g, KCl—0.2 g, Na2HPO4×12 H2O—2.85 g, KH2PO4—0.2 g; pH 7.4) containing heparin was performed. Whole brains were removed, post-fixed in ice-cold 2% PFA for 24 hrs at +4° C. and then placed in 30% sucrose until brain samples sank to the bottom of the container. The samples were stored at −80° C. until further processing.
Frozen brain samples were cut into […] thick sections and directly taken on poly L-lysine coated slides and kept at −20° C. overnight. The cryosections were incubated overnight at 4° C. with primary antibody i.e. purified c-Fos (4): sc-52 for c-Fos detection and BDNF (N-20): sc-546 for BDNF detection independently. […]
Expression of c-Fos and BDNF protein observed under the fluorescent microscope was analyzed by using software ImageJ (NIH, USA). […] For each image, background density was determined and subtracted; the remaining particles were considered to represent c-Fos or BDNF expression. […]
(§2) Data is presented as mean±standard error of the mean (S.E.M.). The seizure activity was analyzed by nonparametric Mann-Whitney U tests. The immunostaining data was analyzed by one-way ANOVA with post hoc Dunnett's multiple comparison tests. Sequential differences among means were calculated at the level of P<0.05 using the SPSS version 10.

[1] = tested on: scPTZ-induced seizure in mice; assay: subcutaneous PTZ-induced seizure test (scPTZ); assay type: in vivo; details: for mortality in scPTZ test: 20 mg/kg of HHL-6 or 7.5 mg/kg of diazepam, PTZ-control 100% mortality; for protection against scPTZ induced mortality / Onset of jerks / Rearing & falling: diazepam 7.5 mg/kg; for protection against scPTZ induced mortality: mortality within 24 hours; for Onset of jerks / Rearing & falling: i.p. 30 min before s.c. PTZ 90 mg/kg, mean of 6 mice; for Onset of jerks: PTZ-control 190; for Rearing & falling: PTZ-control 640
Description: (§3) Albino male NMRI mice weighing 20-25 grams were used. The animals were housed under standard laboratory conditions i.e. 12:12 hr light: dark cycle, temperature (21±2° C.) and air humidity controlled environment. Food and water were provided ad libitum. All experiments were carried out in accordance to the International Guidelines for the Use and Care of Laboratory Animals and approved by Scientific Advisory Committee on Animal Care, Use, and Standards of our institute.
The anticonvulsant effect of HHL-6 using scPTZ test was evaluated by administering 20 mg/kg dose to groups of 6 mice at least 30 min before subcutaneous administration of convulsive dose of PTZ (90 mg/kg). After PTZ administration, animals were isolated and observed for an hour for the presence or absence of different types of seizure patterns. Latency to PTZ-induced threshold seizures was also calculated. The latency to threshold seizure is defined as the interval between the time of the PTZ-injection and the occurrence of first episode of threshold seizure. Protection of testing material against PTZ-induced mortality within 24 hours was also evaluated. In all experiments, diazepam (7.5 mg/kg i.p) was used as positive control.
In Table 3, the HHL-6 and diazepam were injected intraperitoneally 30 min before the administration of subcutaneous pentylenetetrazole (90 mg/kg) in their respective groups. Values are presented as mean for the duration of tonic seizure for 6 mice.

c-Fos protein expression = assay: c-Fos immunohistochemistry of brain sections of PTZ-kindled mice (ImageJ densitometry); assay type: in vivo; details: for Fluorescence intensity of c-Fos, Amygdala / Fluorescence intensity of c-Fos, Thalamus / Fluorescence intensity of c-Fos, Hippocampus / Fluorescence intensity of c-Fos, Cortex: PTZ-kindled mice, HHL-6 20 mg/kg, DZP 7.5 mg/kg, mean ± S.E.M.; for Fluorescence intensity of c-Fos, Amygdala: normal control 12.23 ± 2.9, PTZ control 38.17 ± 5.08; for Fluorescence intensity of c-Fos, Thalamus: normal control 12.58 ± 1.79, PTZ control 45.36 ± 3.70; for Fluorescence intensity of c-Fos, Hippocampus: normal control 15.29 ± 2.3, PTZ control 44.27 ± 7.43; for Fluorescence intensity of c-Fos, Cortex: normal control 16.31 ± 1.24, PTZ control 40.69 ± 8.2; for c-Fos staining intensity (FIG. 4B): cortical region, kindled animals, normal control 16.31±1.24, PTZ control 40.69±8.2
Description: as §1
Frozen brain samples were cut into […] thick sections and directly taken on poly L-lysine coated slides and kept at −20° C. overnight. The cryosections were incubated overnight at 4° C. with primary antibody i.e. purified c-Fos (4): sc-52 for c-Fos detection and BDNF (N-20): sc-546 for BDNF detection independently. This was followed by re-incubation with secondary antibody i.e. biotinylated goat anti-mouse IgG (Alexa Flour) for 1 hour at room temperature in dark. The stained sections were observed under fluorescent microscope (Nikon ECLIPSE TE2000-S, Japan). Since the specificity of the primary antibody is very critical therefore, in order to determine specificity, negative controls were also processed by eliminating the step where sections were incubated with their respective primary antibody.
Expression of c-Fos and BDNF protein observed under the fluorescent microscope was analyzed by using software ImageJ (NIH, USA). The image processing program ImageJ helps in multiple imaging system data comparisons taking density (densitometry) in consideration to analyze the images. For each image, background density was determined and subtracted; the remaining particles were considered to represent c-Fos or BDNF expression. Data were obtained from two sections per mouse (n=12 animals per group) and presented as means±S.E.M. cFos and BDNF immunoreactivity in the amygdala, cortex, dorsal hippocampus, and thalamus were centered approximately around 3.6 mm posterior to bregma. Within the hippocampus region, measurements were performed over the layer extending from sub-regions CA1-CA3.
as §2

[2] = tested on: scPTZ-induced kindling in mice; assay: PTZ-induced kindling test (Racine's scale seizure score); assay type: in vivo
Description: as §3
Sub-convulsive dose (50 mg/kg) of PTZ was given subcutaneously to all groups (n=12/group) except normal control after every 48 hours. In normal control group, instead of PTZ, saline was used. The drug control groups received daily administration of diazepam (7.5 mg/kg). The test group was treated with the HHL-6 (20 mg/kg) once daily. Racine's scale was used to score the seizure activity such as stage 0: no response; stage 1: ear and facial twitching; stage 2: convulsive wave through the body; stage 3: myoclonic jerks, stage 4: clonic-tonic convulsions, turnover into side position; stage 5: generalized clonic-tonic seizures, loss of postural control. Animals showing score 4 or 5 were considered to be fully kindled.

[3] = HHL-6 20 mg/kg; 30 min and 1 h after injection
Description: This was examined by Traction test. The forepaws of a mouse were placed on a small twisted wire rigidly supported above a bench top. Normal mice grasped the wire with forepaws and when allowed to hang free, placed at least one hind foot on the wire within 5 seconds. Inability to put up at least one hind foot constituted failure to the traction. The test was conducted at 30 min and 1 h after the injection of saline, diazepam or HHL-6.

[4] = observed 1-2 hr after treatment
Source text: Animals were transferred into individual cages the day before the experiments to allow them to acclimatize to the new environment. […] For behavioral studies, blind-testing was employed i.e., the experimenter conducting this study was blinded to the given treatment.

[5] = PTZ 90 mg/kg s.c., HHL-6 20 mg/kg
[6] = HHL-6 20 mg/kg, PTZ 90 mg/kg s.c.

Structure (SMILES): CN1C(=O)CN=C(c2ccccc2)c2cc(Cl)ccc21 [diazepam, reference compound]
- BDNF staining intensity (FIG. 5B) (BDNF protein expression): 31.5±7.6
- mortality in scPTZ test ([1]; PTZ 90 mg/kg s.c.): Mortality was not demonstrated
- protection against scPTZ induced mortality [1, 5]: 100%
- Onset of jerks ([1]; HHL-6 20 mg/kg): 0 s
- Rearing & falling ([1]; HHL-6 20 mg/kg): 0 s
- Fluorescence intensity of c-Fos, Amygdala (c-Fos protein expression): 14.94 ± 1.99 arbitrary unit
- Fluorescence intensity of c-Fos, Thalamus (c-Fos protein expression): 18.33 ± 2.19 arbitrary unit
- Fluorescence intensity of c-Fos, Hippocampus (c-Fos protein expression): 20.09 ± 3.77 arbitrary unit
- Fluorescence intensity of c-Fos, Cortex (c-Fos protein expression): 17.28 ± 3.6 arbitrary unit
- c-Fos staining intensity (FIG. 4B) (c-Fos protein expression): 17.28±4.6
- seizure pattern till the end of the kindling protocol ([2]; diazepam 7.5 mg/kg daily, PTZ 50 mg/kg s.c. every 48 hours): did not exhibit any seizure pattern

Structure (SMILES): CCCCCC(=O)NCCc1c(C(C)=O)[nH]c2c(OC)cccc12 [HHL-6, 2-acetyl-3-(2-hexanoylamidoethyl)-7-methoxyindole]
- BDNF staining intensity (FIG. 5B) (BDNF protein expression): 26.2±5.4
- protection from jerks [1, 6]: unable to provide protection from jerks
- protection from tonic fore limb and hind limb seizures [1, 6]: 100%
- mortality in scPTZ test ([1]; PTZ 90 mg/kg s.c.): Mortality was not demonstrated
- protection against scPTZ induced mortality [1, 5]: 100%
- Onset of jerks ([1]; HHL-6 20 mg/kg): 460 s
- Rearing & falling ([1]; HHL-6 20 mg/kg): 0 s
- muscle relaxant activity (traction test) [3]: did not observed muscle relaxant activity
- Fluorescence intensity of c-Fos, Amygdala (c-Fos protein expression): 15.21 ± 2.3 arbitrary unit
- Fluorescence intensity of c-Fos, Thalamus (c-Fos protein expression): 15.58 ± 3.74 arbitrary unit
- Fluorescence intensity of c-Fos, Hippocampus (c-Fos protein expression): 16.92 ± 2.75 arbitrary unit
- Fluorescence intensity of c-Fos, Cortex (c-Fos protein expression): 18.24 ± 3.2 arbitrary unit
- c-Fos staining intensity (FIG. 4B) (c-Fos protein expression): 18.24±3.2
- alteration in normal behavior pattern [4]: did not show any alteration in their normal behavior pattern
- hyper-excitability or sedation [4]: not observed
- seizure score (kindling) after treatment day 13 ([2]; HHL-6 20 mg/kg, PTZ 50 mg/kg on alternate days, 18 doses in 36 days): 0
- seizure score (kindling) ([2]; treatment day 9 till 13, HHL-6 20 mg/kg once daily, PTZ 50 mg/kg s.c. every 48 hours, PTZ-kindled control average 4.9): 0.3
